The source of these data is article PMC3319563 (PLoS ONE, 2012).

In series [1] the target is T1, AtuGSTH1-1 (Agrobacterium fabrum, UniProt A9CFJ9).
T1 construct: gene Atu3701; homodimer by crystal symmetry
T1 sequence (A9CFJ9 1-230): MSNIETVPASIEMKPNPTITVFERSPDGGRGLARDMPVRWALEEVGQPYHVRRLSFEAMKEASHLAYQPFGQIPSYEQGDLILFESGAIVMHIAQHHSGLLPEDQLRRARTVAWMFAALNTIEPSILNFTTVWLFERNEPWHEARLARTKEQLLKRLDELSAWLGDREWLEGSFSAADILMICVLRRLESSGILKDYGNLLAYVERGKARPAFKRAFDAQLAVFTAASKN
As to the kind of experiment: steady-state kinetics, GST assay. In kind it is biochemical. The note with it: co-substrate GSH; 0.1 M potassium phosphate pH 6.5, 37 °C; read-out: Κm. From the text:
steady-state kinetics, GST assay on AtuGSTH1-1

The target in series [2] is T2, AtuGSTH1-1 (Agrobacterium fabrum, UniProt A9CFJ9, S25A).
T2 construct: gene Atu3701
The note with it: read-out: Km, (mM) (CDNB) / Km, (mM) (CuOOH); co-substrate GSH.

Series [3] deals with T3, AtuGSTH1-1 (Agrobacterium fabrum, UniProt A9CFJ9, R187A).
T3 construct: gene Atu3701
The note with it: read-out: Km, (mM) (CDNB) / Km, (mM) (CuOOH); co-substrate GSH.

The target of series [4] is T4, AtuGSTH1-1 (Agrobacterium fabrum, UniProt A9CFJ9, F22A).
T4 construct: gene Atu3701
The note with it: read-out: Km, (mM) (CDNB) / Km, (mM) (CuOOH); co-substrate GSH.

Series [5] addresses T1, AtuGSTH1-1. The series can be described thus: steady-state kinetics, thioltransferase assay. In kind it is biochemical. The note with it: co-substrate GSH; 0.1 M potassium phosphate pH 6.5, 37 °C; read-out: Κm. From the text:
steady-state kinetics, thioltransferase assay on AtuGSTH1-1

Substrate in series [6]: CC(C)(C)OO
The series can be described thus: steady-state kinetics, GSH-dependent peroxidase assay. The note with it: co-substrate GSH, 0.1 M potassium phosphate pH 6.5, 37 °C. It counts as biochemical, Agrobacterium fabrum.

Substrate in series [7]: CC(C)(OO)c1ccccc1
The series is described as above. It counts as biochemical, Agrobacterium fabrum. The note with it: co-substrate GSH, 0.1 M potassium phosphate pH 6.5, 37 °C.

For `O=[N+]([O-])c1ccc(Cl)c([N+](=O)[O-])c1` [CDNB, 1-chloro-2,4-dinitrobenzene], the Km on AtuGSTH1-1 [1] was found to be 1500 ± 90 µM; at AtuGSTH1-1 [2] it was 1.9 ± 0.18 mM; at AtuGSTH1-1 [3], 7.1 ± 0.76 mM; on AtuGSTH1-1 [4], 3.2 ± 0.39 mM.

As to `OCCSSCCO` [HEDS], at AtuGSTH1-1 [5], the Km was determined as 4100 ± 120 µM.

B1: AtuGSTH1-1 (Agrobacterium fabrum str. C58) (protein)
chain: T1 sequence (A9CFJ9 1-230)
notes: homodimer by crystal symmetry
Broadly, the kcat is the maximal rate divided by the concentration of active sites. Turning to B1, the Km amounted to 1600 ± 70 µM in series [6] and 2700 ± 210 µM in series [7]. The kcat in series [6] was 2.495 ± 0.0868 s⁻¹; in series [7], 5.657 ± 0.101 s⁻¹.
